How the values were obtained:
Assay in all cases: Kinase inhibitor library screening, PrestoBlue cell viability, 1 or 10 μM, 72 h
[1] = tested on: A375 cells (parental)
[2] = tested on: IGR37-GP cells (Dabrafenib-resistant)
[3] = tested on: A375-XP cells (Vemurafenib-resistant)
[4] = tested on: IGR37-XP cells (Vemurafenib-resistant)
[5] = tested on: 501Mel-GP cells (Dabrafenib-resistant); details: 72 h
[6] = tested on: 501Mel-XP cells (Vemurafenib-resistant); details: 72 h
[7] = tested on: 501Mel cells (parental); details: 72 h
Summary of the method: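 Normalised to untreated controls, viability percentages came from PrestoBlue measured on a microplate reader following 72 h incubation with drug. Each line was assayed at least twice.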

[8] = tested on: IGR37 cells (parental)
[9] = tested on: A375-GP cells (Dabrafenib-resistant)

Row | Compound | cell viability (kinase inhibitor library screening) ([1]; A375 Parental, 10μΜ, 72 h) [%] | cell viability (kinase inhibitor library screening) ([2]; IGR37 GP, 1μΜ, 72 h) [%] | cell viability (kinase inhibitor library screening) ([2]; IGR37 GP, 10μΜ, 72 h) [%] | cell viability (kinase inhibitor library screening) ([3]; A375 XP, 1μΜ, 72 h) [%] | cell viability (kinase inhibitor library screening) ([3]; A375 XP, 10μΜ, 72 h) [%] | cell viability (kinase inhibitor library screening) ([4]; IGR37 XP, 1μΜ, 72 h) [%] | cell viability (kinase inhibitor library screening) ([4]; IGR37 XP, 10μΜ, 72 h) [%] | cell viability (kinase inhibitor library screening) ([5]; 501Mel GP, 1μΜ) [%] | cell viability (kinase inhibitor library screening) ([5]; 501Mel GP, 10μΜ) [%] | cell viability (kinase inhibitor library screening) ([6]; 501Mel XP, 1μΜ) [%] | cell viability (kinase inhibitor library screening) ([6]; 501Mel XP, 10μΜ) [%] | cell viability (kinase inhibitor library screening) ([7]; 501Mel Parental, 1μΜ) [%] | cell viability (kinase inhibitor library screening) ([7]; 501Mel Parental, 10μΜ) [%] | cell viability (kinase inhibitor library screening) ([8]; IGR37 Parental, 1μΜ, 72 h) [%] | cell viability (kinase inhibitor library screening) ([8]; IGR37 Parental, 10μΜ, 72 h) [%] | cell viability (kinase inhibitor library screening) ([9]; A375 GP, 1μΜ, 72 h) [%] | cell viability (kinase inhibitor library screening) ([9]; A375 GP, 10μΜ, 72 h) [%] | cell viability (kinase inhibitor library screening) ([1]; A375 Parental, 1μΜ, 72 h) [%] | further results
1 | Cc1ccc(F)c(NC(=O)Nc2ccc(-c3cccc4[nH]nc(N)c34)cc2)c1 [Linifanib (ABT-869)] | – | – | – | – | – | – | – | – | – | – | – | – | – | – | – | – | – | – | Cell viability in kinase inhibitor library screening, A375 Parental, 10μΜ ([1]; A375 Parental, 10μΜ, 72 h): 46.3; Cell viability in kinase inhibitor library screening, A375 Parental, 1μΜ ([1]; A375 Parental, 1μΜ, 72 h): 106.9; Cell viability in kinase inhibitor library screening, IGR37 GP, 10μΜ ([2]; IGR37 GP, 10μΜ, 72 h): 52.4%; Cell viability in kinase inhibitor library screening, A375 XP, 1μΜ ([3]; A375 XP, 1μΜ, 72 h): 110.5; Cell viability in kinase inhibitor library screening, A375 XP, 10μΜ ([3]; A375 XP, 10μΜ, 72 h): 59.8; Cell viability in kinase inhibitor library screening, IGR37 XP, 10μΜ ([4]; IGR37 XP, 10μΜ, 72 h): 30.7%; Cell viability in kinase inhibitor library screening, IGR37 XP, 1μΜ ([4]; IGR37 XP, 1μΜ, 72 h, in %): 102.6; Cell viability in kinase inhibitor library screening, 501Mel GP, 1μΜ ([5]; 501Mel GP, 1μΜ, in %): 106.7; Cell viability in kinase inhibitor library screening, 501Mel GP, 10μΜ ([5]; 501Mel GP, 10μΜ, in %): 11.3; Cell viability in kinase inhibitor library screening, 501Mel XP, 10μΜ ([6]; 501Mel XP, 10μΜ, in %): 3.8; Cell viability in kinase inhibitor library screening, 501Mel Parental, 1μΜ ([7]; 501Mel Parental, 1μΜ, in %): 98.1; Cell viability in kinase inhibitor library screening, IGR37 Parental, 1μΜ ([8]; IGR37 Parental, 1μΜ, 72 h, in %): 99.9; Cell viability in kinase inhibitor library screening, IGR37 Parental, 10μΜ ([8]; IGR37 Parental, 10μΜ, 72 h, in %): 60.3; Cell viability in kinase inhibitor library screening, A375 GP, 1μΜ ([9]; A375 GP, 1μΜ, 72 h): 102.6; Cell viability in kinase inhibitor library screening, A375 GP, 10μΜ ([9]; A375 GP, 10μΜ, 72 h): 38.3
2 | C[C@]1(O)C[C@@H](c2nc(-c3ccc4ccc(-c5ccccc5)nc4c3)c3c(N)nccn32)C1 [Linsitinib (OSI-906)] | – | – | – | – | – | – | – | – | – | – | – | – | – | – | – | – | – | – | viability at 1 µM ([1]; Homo sapiens, A-375, 72 h, read-out: cell viability, A375 Parental, 1μΜ): 84.1%; viability at 10 µM ([1]; Homo sapiens, A-375, 72 h, read-out: cell viability, A375 Parental, 10μΜ): 42.3%; viability at 1 µM ([2]; Homo sapiens, IGR-37, 72 h, read-out: cell viability, IGR37 GP, 1μΜ): 81.6%; viability at 10 µM ([2]; Homo sapiens, IGR-37, 72 h, read-out: cell viability, IGR37 GP, 10μΜ): 25.5%; viability at 1 µM ([3]; Homo sapiens, A-375, 72 h, read-out: cell viability, A375 XP, 1μΜ): 77.2%; viability at 10 µM ([3]; Homo sapiens, A-375, 72 h, read-out: cell viability, A375 XP, 10μΜ): 44.6%; viability at 1 µM ([4]; Homo sapiens, IGR-37, 72 h, read-out: cell viability, IGR37 XP, 1μΜ): 66.7%; viability at 10 µM ([4]; Homo sapiens, IGR-37, 72 h, read-out: cell viability, IGR37 XP, 10μΜ): 6.7%; viability at 1 µM ([5]; Homo sapiens, read-out: cell viability, 501Mel GP, 1μΜ): 83.6%; viability at 10 µM ([5]; Homo sapiens, read-out: cell viability, 501Mel GP, 10μΜ): 54.2%; viability at 1 µM ([6]; Homo sapiens, read-out: cell viability, 501Mel XP, 1μΜ): 75.2%; viability at 10 µM ([6]; Homo sapiens, read-out: cell viability, 501Mel XP, 10μΜ): 32.6%; viability at 1 µM ([7]; Homo sapiens, read-out: cell viability, 501Mel Parental, 1μΜ): 70.7%; viability at 10 µM ([7]; Homo sapiens, read-out: cell viability, 501Mel Parental, 10μΜ): 45.5%; viability at 1 µM ([8]; Homo sapiens, IGR-37, 72 h, read-out: cell viability, IGR37 Parental, 1μΜ): 107%; viability at 10 µM ([8]; Homo sapiens, IGR-37, 72 h, read-out: cell viability, IGR37 Parental, 10μΜ): 67.7%; viability at 1 µM ([9]; Homo sapiens, A-375, 72 h, read-out: cell viability, A375 GP, 1μΜ): 67.1%; viability at 10 µM ([9]; Homo sapiens, A-375, 72 h, read-out: cell viability, A375 GP, 10μΜ): 34.4%
3 | COCCNCc1ccc(-c2cc3nccc(Oc4ccc(NC(=S)NC(=O)Cc5ccc(F)cc5)cc4F)c3s2)nc1 [MGCD-265] | 83.0 | 91.8 | 78.3 | 104.8 | 98.2 | 91.5 | 50.3 | 89.8 | 68.8 | 76.7 | 64.2 | 104.7 | 94.4 | 96.8 | 92.1 | 95.5 | 85.6 | – | –
4 | CN(C[C@@H]1COCCO1)S(=O)(=O)Nc1ccc2ccc3ncc(-c4cnn(C)c4)cc3c(=O)c2c1 [MK-2461] | 78.1 | – | 28.3 | 106.1 | 88.4 | 99.3 | 6.5 | 90.6 | 45.5 | 77.5 | 30.0 | 102.9 | 83.3 | 103.2 | 84.5 | – | 78.6 | 106.3 | –
5 | O=C(O)[C@]1(Cc2cccc(Nc3nccs3)n2)CC[C@@H](Oc2cccc(Cl)c2F)CC1 [MK-5108 (VX-689)] | 56.1 | – | 93.5 | 99.5 | 68.2 | 100.4 | 80.0 | 83.4 | 63.6 | 72.1 | 52.0 | 94.9 | 74.6 | 98.6 | 94.9 | 92.6 | 63.9 | 91.4 | –
6 | O=C(O)c1ccc(Nc2ncc3c(n2)-c2ccc(Cl)cc2C(c2c(F)cccc2F)=NC3)cc1 [MLN8054] | 41.6 | 94.0 | 66.7 | 75.7 | 52.2 | 94.1 | 42.0 | 86.0 | 65.6 | 74.5 | 59.4 | 86.3 | 77.0 | 98.2 | 64.8 | 70.2 | 45.2 | 66.5 | –
7 | COc1cc(Nc2ncc3c(n2)-c2ccc(Cl)cc2C(c2c(F)cccc2OC)=NC3)ccc1C(=O)O [MLN8237 (Alisertib)] | 40.1 | 89.7 | 56.0 | 51.0 | 50.5 | 86.2 | 31.0 | 82.8 | 52.7 | 67.2 | 49.0 | 82.2 | 73.9 | 70.3 | 54.5 | 42.7 | 41.7 | 43.3 | –
8 | Cc1ccc(NC(=O)c2ccc(CN3CCN(C)CC3)cc2)cc1Nc1nc(-c2cccnc2)cs1 [Masitinib (AB1010)] | 87.9 | – | 77.4 | 105.3 | 94.5 | 103.2 | 49.1 | 103.1 | 85.2 | 94.5 | 20.4 | – | 88.8 | 98.6 | 92.0 | 98.6 | 85.2 | – | –
